We go through ten molecules from ChEMBL document CHEMBL1143179 (Bioorg Med Chem Lett, 2008).

For data set [1], the target named is T1, Prostaglandin E2 receptor EP2 subtype (Homo sapiens, UniProt P43116). In words: Agonist activity at human EP2 receptor by cAMP assay. It is filed as functional. For orientation: Changes in cAMP serve as a functional read-out for many G protein-coupled receptors.
Data set [2] has as its target T2, Prostaglandin E2 receptor EP4 subtype (Homo sapiens, UniProt P35408). Description: Agonist activity at human EP4 receptor by cAMP assay. It is filed as functional.
The target of data set [3] is T1, Prostaglandin E2 receptor EP2 subtype. Description: Displacement of [3H]PGE2 from human EP2 receptor.
Data set [4] deals with T2, Prostaglandin E2 receptor EP4 subtype. Description: Displacement of […] from human EP4 receptor.
Data set [5] deals with Mus musculus. Description: Induction of ovulation in sc dosed CD1 mouse. The format is functional.
The subject of data set [6] is Rattus norvegicus. In words: AUC (0 to 48 hrs) in rat at 10 mg/kg, po. Particulars: in vivo. The format is ADME, organism-based, Plasma. Also noted: time < 48 hr, dose 10 mg/kg, route oral.
Data set [7] has as its system Rattus norvegicus. Description: AUC (0 to 48 hrs) in rat at 10 mg/kg, sc. The format is ADME, organism-based, Plasma. Also noted: time < 48 hr, dose 10 mg/kg, route subcutaneous. Particulars: in vivo.
The nature of data set [8]: Tmax in rat at 10 mg/kg, po. The format is ADME, organism-based. More on the design: dose 10 mg/kg, route oral. Particulars: in vivo.
A short description of data set [9]: Tmax in rat at 10 mg/kg, iv. It is filed as ADME, organism-based. Particulars: in vivo. More on the design: dose 10 mg/kg, route intravenous.
A short description of data set [10]: Clearance in rat at 10 mg/kg. It is filed as ADME, organism-based. More on the design: dose 10 mg/kg. The following applies: in vivo.
Data set [11] is described as follows: Tmax in rat at 10 mg/kg, sc. It is filed as ADME, organism-based. More on the design: dose 10 mg/kg, route subcutaneous. Particulars: in vivo.
Data set [12] in a line: Half life in rat at 10 mg/kg, sc. The format is ADME, organism-based. More on the design: dose 10 mg/kg, route subcutaneous. The following applies: in vivo.
Data set [13] can be described thus: Drug distribution in rat at 10 mg/kg, iv. It is filed as ADME, organism-based. More on the design: dose 10 mg/kg, route intravenous. Particulars: in vivo, read-out: Drug uptake.
Data set [14] in a line: Half life in rat at 10 mg/kg, po. It is filed as ADME, organism-based. More on the design: dose 10 mg/kg, route oral. Particulars: in vivo.
Data set [15] has as its system Rattus norvegicus. In words: Bioavailability in rat at 10 mg/kg, sc. The format is ADME, organism-based. The following applies: in vivo.
Data set [16] relates to Rattus norvegicus. Description: AUC (0 to 48 hrs) in rat at 10 mg/kg, iv. It is filed as ADME, organism-based, Plasma. Also noted: time < 48 hr, dose 10 mg/kg, route intravenous. The following applies: in vivo.
Data set [17] deals with Rattus norvegicus. In words: Oral bioavailability in rat at 10 mg/kg. The following applies: in vivo. It is filed as ADME, organism-based.
Data set [18] deals with Cavia porcellus. In words: Inhibition of methacholine-induced bronchoconstriction in Duncan-Hartley guinea pig at >3 ug/kg. It is filed as functional.
Data set [19] in a line: Half life in rat at 10 mg/kg, iv. The format is ADME, organism-based. Also noted: dose 10 mg/kg, route intravenous. The following applies: in vivo.
Data set [20] is filed under the species Cavia porcellus. Description: Inhibition of methacholine-induced bronchoconstriction in Duncan-Hartley guinea pig. The format is functional.
Data set [21] relates to Mus musculus. Description: Induction of ovulation in po dosed CD1 mouse. It is filed as functional.

Activity calls are given as the source filed them. No cut-off for these calls is given here.

T2 sequence (P35408 whole entry): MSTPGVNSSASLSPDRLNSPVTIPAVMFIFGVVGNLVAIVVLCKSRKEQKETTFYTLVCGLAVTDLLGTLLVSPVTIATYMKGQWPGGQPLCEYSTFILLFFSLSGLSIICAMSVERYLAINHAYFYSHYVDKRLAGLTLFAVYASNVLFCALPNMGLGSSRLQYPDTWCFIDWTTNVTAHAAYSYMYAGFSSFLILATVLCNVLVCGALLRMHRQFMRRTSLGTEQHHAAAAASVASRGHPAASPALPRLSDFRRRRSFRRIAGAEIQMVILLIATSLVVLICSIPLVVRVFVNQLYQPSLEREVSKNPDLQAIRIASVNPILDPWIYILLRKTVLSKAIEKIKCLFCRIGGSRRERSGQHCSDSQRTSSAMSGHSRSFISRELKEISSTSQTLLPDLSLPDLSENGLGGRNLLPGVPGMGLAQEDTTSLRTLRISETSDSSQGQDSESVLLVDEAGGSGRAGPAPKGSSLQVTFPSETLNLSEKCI
T1 sequence (P43116 whole entry): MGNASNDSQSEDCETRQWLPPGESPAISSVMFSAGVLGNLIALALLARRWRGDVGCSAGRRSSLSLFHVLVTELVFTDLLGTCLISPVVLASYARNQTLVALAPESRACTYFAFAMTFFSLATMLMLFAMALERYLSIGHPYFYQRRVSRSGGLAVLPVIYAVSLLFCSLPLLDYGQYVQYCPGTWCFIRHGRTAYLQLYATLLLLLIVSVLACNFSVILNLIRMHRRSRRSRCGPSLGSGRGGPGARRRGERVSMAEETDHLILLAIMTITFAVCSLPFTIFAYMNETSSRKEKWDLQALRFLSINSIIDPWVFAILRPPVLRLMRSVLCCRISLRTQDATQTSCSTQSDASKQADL

`O=C(O)c1ccc(CCN2C(=O)CC[C@@H]2/C=C/[C@@H](O)Cc2ccccc2)cc1`: the values for the EC50 in data set [1] and in data set [2] were 434 nM and 0.03 nM, respectively. The Ki – broadly, a measure of affinity in units of concentration, obtained from inhibition or displacement – in [3] is 2540 nM.

Regarding `O=C(O)c1ccc(CCN2C(=O)CC[C@@H]2/C=C/[C@@H](O)Cc2cccc(Cl)c2)cc1`, the EC50 (as a rule, the concentration that produces a half-maximal response) in [1] was determined as 250 nM; in [2], 0.03 nM. The figures for the Ki in data set [4] and in data set [3] were 0.02 nM and 1000 nM, respectively. The outcome in the data set with Mus musculus [5] was inactive.

As to `CCCCC(C)(C)[C@H](O)/C=C/[C@H]1CCC(=O)N1CCc1ccc(C(=O)O)cc1`, the results for the EC50 in data set [1] and in data set [2] were 19 nM and 3 nM, respectively. The Ki in data set [4] was found to be 9 nM; in [3], 141 nM.

As for `CCCCC[C@H](O)/C=C/[C@H]1CCC(=O)N1CCc1ccc(C(=O)O)cc1`, the AUC (usually concentration integrated over time) in the data set with Rattus norvegicus [6] stood at 14657.8 ng·h/mL; with Rattus norvegicus [7], 35175.6 ng·h/mL; in the data set with Rattus norvegicus [16] it was 18095.3 ng·h/mL. Besides, the figures for the Tmax in data set [8], in data set [9] and in [11] were 4 h, 4.98 min and 0.25 h, respectively. For the same molecule, the EC50 stood at 15 nM in data set [1] and 0.02 nM in data set [2]. The clearance (in general, the volume of plasma or blood freed of the substance per unit of time) in data set [10] is 9.17 mL/min/kg. The half-life – broadly, the time in which the quantity being followed falls by half – in data set [12] is 31.6 h; in data set [14], 20.8 h; in [19], 14.3 h. Besides, the Vd in data set [13] stood at 42.4 L/kg. For the same molecule, the figures for the F in the data set with Rattus norvegicus [15] and in the data set with Rattus norvegicus [17] were 82% and 33%, respectively. Besides, the Inhibition (in general, how much of the control response was suppressed) with Cavia porcellus [18] is given as greater than 50%. Also, it took a dose of 0.0017 mg/kg to reach the 50% effect level in the data set filed under Cavia porcellus [20] (ED50).

As to `CCC[C@H](O)/C=C/[C@H]1CCC(=O)N1CCc1ccc(C(=O)O)cc1`, the Ki in [4] amounted to 27 nM; in [3] it was 25000 nM.

Consider `CC[C@H](O)/C=C/[C@H]1CCC(=O)N1CCc1ccc(C(=O)O)cc1`, for which the Ki in data set [4] is 490 nM; in data set [3], greater than 10000 nM.

`CCCCC1([C@@H](O)/C=C/[C@H]2CCC(=O)N2CCc2ccc(C(=O)O)cc2)CCC1`: the EC50 in data set [1] stood at 3 nM; in [2] it was 0.3 nM. The Ki came to 2 nM in [4] and 21 nM in data set [3]. Further, it took a dose of 1 mg/kg to reach the 50% effect level in the data set with Mus musculus [21] (ED50). For the same molecule, in the data set with Mus musculus [5], the outcome was inactive.

In the case of `CCCCCC[C@H](O)/C=C/[C@H]1CCC(=O)N1CCc1ccc(C(=O)O)cc1`, the Ki in [3] was found to be 54 nM.

With `CCCC1([C@H](O)C/C=C/[C@H]2[C@H](O)CC(=O)[C@@H]2CCCCCCC(=O)OC)CCC1`, in the data set on Mus musculus [21], the result was inactive.

Consider `CCCC[C@H](O)/C=C/[C@H]1CCC(=O)N1CCc1ccc(C(=O)O)cc1`, for which the EC50 in data set [1] turned out to be 80 nM; in [2], 0.04 nM. Also, the Ki in data set [4] amounted to 1 nM; in data set [3], 425 nM.
